One test has as its target E. coli PBP2 (Escherichia coli (strain K12), UniProt P0AD65). Description: E. coli PBP2 Bocillin-FL fluorescence polarization competition binding assay. In short, it runs like this: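 Purified PBP2 at 1.5 μM final was preincubated with boronic acid inhibitor, then Bocillin-FL added to 0.1 μM final in Hepes pH 8.0/NaCl/glycerol buffer. Polarization was monitored 90 min; the concentration halving probe binding is reported as EC50.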

In another test the target is E. coli PBP1b (Escherichia coli (strain K12), UniProt P02919). Briefly: Radioligand competition binding assay with 14C-labeled boronic acid probe, PBP1b.
Sequence of E. coli PBP1b (P02919 whole entry): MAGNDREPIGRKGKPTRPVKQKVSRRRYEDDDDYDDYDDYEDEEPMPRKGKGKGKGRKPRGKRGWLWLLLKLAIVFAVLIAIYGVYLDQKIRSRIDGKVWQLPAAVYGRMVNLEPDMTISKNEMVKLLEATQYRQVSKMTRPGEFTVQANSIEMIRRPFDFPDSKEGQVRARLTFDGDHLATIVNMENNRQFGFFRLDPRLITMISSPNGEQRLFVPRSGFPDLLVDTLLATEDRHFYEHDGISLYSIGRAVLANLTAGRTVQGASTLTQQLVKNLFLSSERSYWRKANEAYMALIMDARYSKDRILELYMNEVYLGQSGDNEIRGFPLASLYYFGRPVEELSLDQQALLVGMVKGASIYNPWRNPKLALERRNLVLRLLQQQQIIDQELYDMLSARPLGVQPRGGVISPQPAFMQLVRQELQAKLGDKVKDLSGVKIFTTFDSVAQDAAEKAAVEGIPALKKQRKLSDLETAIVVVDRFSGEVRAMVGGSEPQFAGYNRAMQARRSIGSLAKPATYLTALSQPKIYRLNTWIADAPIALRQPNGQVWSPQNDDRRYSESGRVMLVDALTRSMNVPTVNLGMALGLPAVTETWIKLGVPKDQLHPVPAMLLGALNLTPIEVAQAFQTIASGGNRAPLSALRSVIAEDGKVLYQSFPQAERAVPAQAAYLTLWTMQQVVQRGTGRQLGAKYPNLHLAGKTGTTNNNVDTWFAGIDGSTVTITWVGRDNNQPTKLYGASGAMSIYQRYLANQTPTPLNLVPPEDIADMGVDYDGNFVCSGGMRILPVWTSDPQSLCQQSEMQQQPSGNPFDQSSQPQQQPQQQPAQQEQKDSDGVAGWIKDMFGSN
Test [1] has as its system engineered strain of Escherichia coli harboring CTX-M15. Description: microbe, parasite or virus in culture. Type of test: cell-based. Conditions: Escherichia coli, read-out: Microbiological Activity (MIC in mg/L), E. coli DH5α/pLBII-CTX-M15, engineered strain producing CTX-M15.
The mark [2] stands for this setting: fluorescence polarization competition binding with Bocillin-FL, read-out: E. coli K12 PBP2 Potency (EC50).

Each structure is given as a SMILES string. ≈ marks a conversion by molar mass, not a printed value. Like-named read-outs stand apart in the source and are kept apart here.

Sequence of E. coli PBP2 (P0AD65 whole entry): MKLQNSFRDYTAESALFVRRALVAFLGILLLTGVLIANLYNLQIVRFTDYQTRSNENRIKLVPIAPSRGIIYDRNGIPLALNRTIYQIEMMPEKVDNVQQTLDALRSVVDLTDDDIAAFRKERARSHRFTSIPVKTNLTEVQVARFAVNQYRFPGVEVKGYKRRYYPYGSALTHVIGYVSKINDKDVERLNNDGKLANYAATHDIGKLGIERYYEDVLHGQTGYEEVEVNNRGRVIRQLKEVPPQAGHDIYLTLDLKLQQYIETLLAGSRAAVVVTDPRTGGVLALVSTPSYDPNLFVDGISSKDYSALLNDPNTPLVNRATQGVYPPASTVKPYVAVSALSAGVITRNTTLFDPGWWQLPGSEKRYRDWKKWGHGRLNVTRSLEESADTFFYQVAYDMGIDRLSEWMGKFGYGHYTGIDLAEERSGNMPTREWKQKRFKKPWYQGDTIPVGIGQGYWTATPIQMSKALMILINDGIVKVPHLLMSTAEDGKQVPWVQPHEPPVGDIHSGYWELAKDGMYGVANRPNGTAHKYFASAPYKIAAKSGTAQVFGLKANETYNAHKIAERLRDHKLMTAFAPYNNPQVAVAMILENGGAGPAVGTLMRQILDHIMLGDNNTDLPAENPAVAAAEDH

Consider `CCN1CCN(C(=O)NC(C(=O)N[C@H]2Cc3cccc(C(=O)O)c3OB2O)c2csc(N)n2)C(=O)C1=O` (stereo partly drawn) [Example 5, (3R)-3-(2-(2-aminothiazol-4-yl)-2-(4-ethyl-2,3-dioxopiperazine-1-carboxamido)acetamido)-2-hydroxy-3,4-dihydro-2H-benzo[e][1,2]oxaborinine-8-carboxylic acid], for which the EC50 at E. coli PBP2 (setting [2]) is 30 to 500 µM; on E. coli PBP1b, less than 10 µM.

Turning to `CCN1CCN(C(=O)NC(C(=O)N[C@H]2Cc3cccc(C(=O)O)c3OB2O)c2cnc(N)s2)C(=O)C1=O` (stereo partly drawn) [Example 51, (3R)-3-(2-(2-aminothiazol-5-yl)-2-(4-ethyl-2,3-dioxopiperazine-1-carboxamido)acetamido)-2-hydroxy-3,4-dihydro-2H-benzo[e][1,2]oxaborinine-8-carboxylic acid], the EC50 at E. coli PBP2 (setting [2]) is greater than 500 µM; at E. coli PBP1b, 10 to 100 µM.

As to `CCN1CCN(C(=O)NC(C(=O)N[C@H]2Cc3cccc(C(=O)O)c3OB2O)c2ccc(O)cc2F)C(=O)C1=O` (stereo partly drawn) [Example 87, (3R)-3-(2-(4-ethyl-2,3-dioxopiperazine-1-carboxamido)-2-(2-fluoro-4-hydroxyphenyl)acetamido)-2-hydroxy-3,4-dihydro-2H-benzo[e][1,2]oxaborinine-8-carboxylic acid], the MIC in test [1] was in the range of 32 to 64 mg/L (≈ 59 to 118 µM). For the same compound, on E. coli PBP2 (setting [2]), the EC50 was greater than 500 µM.

With `CCN1CCN(C(=O)NC(C(=O)N[C@H]2Cc3cccc(C(=O)O)c3OB2O)c2cc(O)c(O)cc2F)C(=O)C1=O` (stereo partly drawn) [Example 90, (3R)-3-(2-(4-ethyl-2,3-dioxopiperazine-1-carboxamido)-2-(2-fluoro-4,5-dihydroxyphenyl)acetamido)-2-hydroxy-3,4-dihydro-2H-benzo[e][1,2]oxaborinine-8-carboxylic acid], the MIC in test [1] fell in the range of 8 to 16 mg/L (≈ 14.3 to 28.7 µM). Further, at E. coli PBP2 (setting [2]), the concentration for a half-maximal effect (EC50) was greater than 500 µM.

On to `CCN1CCN(C(=O)NC(C(=O)N[C@H]2Cc3cccc(C(=O)O)c3OB2O)c2ccc(S(N)(=O)=O)cc2)C(=O)C1=O` (stereo partly drawn) [Example 102, (3R)-3-(2-(4-ethyl-2,3-dioxopiperazine-1-carboxamido)-2-(4-sulfamoylphenyl)acetamido)-2-hydroxy-3,4-dihydro-2H-benzo[e][1,2]oxaborinine-8-carboxylic acid], for which the MIC in test [1] fell in the range of 8 to 16 mg/L (≈ 13.6 to 27.2 µM). Besides, the concentration for a half-maximal effect (EC50) at E. coli PBP2 (setting [2]) is greater than 500 µM.

In the case of `CCN1CCN(C(=O)NC(C(=O)N[C@H]2Cc3cccc(C(=O)O)c3OB2O)c2cccc(N)n2)C(=O)C1=O` (stereo partly drawn) [Example 104, (3R)-3-(2-(6-aminopyridin-2-yl)-2-(4-ethyl-2,3-dioxopiperazine-1-carboxamido)acetamido)-2-hydroxy-3,4-dihydro-2H-benzo[e][1,2]oxaborinine-8-carboxylic acid], the figures for the concentration for a half-maximal effect (EC50) at E. coli PBP2 and at E. coli PBP1b were 30 to 500 µM and greater than 100 µM, respectively.

With `CCN1CCN(C(=O)NC(C(=O)N[C@H]2Cc3ccc(F)c(C(=O)O)c3OB2O)c2csc(N)n2)C(=O)C1=O` (stereo partly drawn) [Example 109, (3R)-3-(2-(2-aminothiazol-4-yl)-2-(4-ethyl-2,3-dioxopiperazine-1-carboxamido)acetamido)-7-fluoro-2-hydroxy-3,4-dihydro-2H-benzo[e][1,2]oxaborinine-8-carboxylic acid], the MIC in test [1] lay in the range of 2 to 4 mg/L (≈ 3.65 to 7.3 µM). The EC50 on E. coli PBP2 (setting [2]) is greater than 500 µM; at E. coli PBP1b it was greater than 100 µM.

On to `CCN1CCN(C(=O)N[C@@H](C(=O)N[C@H]2Cc3ccc(F)c(C(=O)O)c3OB2O)[C@@H](C)O)C(=O)C1=O` [Example 110, (R)-3-((2R,3R)-2-(4-ethyl-2,3-dioxopiperazine-1-carboxamido)-3-hydroxybutanamido)-7-fluoro-2-hydroxy-3,4-dihydro-2H-benzo[e][1,2]oxaborinine-8-carboxylic acid], for which the MIC in test [1] was in the range of 8 to 16 mg/L (≈ 16.2 to 32.4 µM). Moreover, the figures for the EC50 at E. coli PBP2 (setting [2]) and on E. coli PBP1b were greater than 500 µM and greater than 100 µM, respectively.

With `CCN1CCN(C(=O)NC(C(=O)N[C@H]2Cc3cccc(C(=O)O)c3OB2O)c2cccc(O)n2)C(=O)C1=O` (stereo partly drawn) [Example 117, (3R)-3-(2-(4-ethyl-2,3-dioxopiperazine-1-carboxamido)-2-(6-hydroxypyridin-2-yl)acetamido)-2-hydroxy-3,4-dihydro-2H-benzo[e][1,2]oxaborinine-8-carboxylic acid], in test [1], the MIC was in the range of 32 to 64 mg/L (≈ 60.9 to 122 µM). Further, the EC50 at E. coli PBP2 (setting [2]) is greater than 500 µM; at E. coli PBP1b, greater than 100 µM.

Regarding `CCN1CCN(C(=O)NC(C(=O)N[C@H]2Cc3cccc(C(=O)O)c3OB2O)c2cnc(O)cn2)C(=O)C1=O` (stereo partly drawn) [Example 121, (3R)-3-(2-(4-ethyl-2,3-dioxopiperazine-1-carboxamido)-2-(5-hydroxypyrazin-2-yl)acetamido)-2-hydroxy-3,4-dihydro-2H-benzo[e][1,2]oxaborinine-8-carboxylic acid], the EC50 is greater than 500 µM at E. coli PBP2 (setting [2]) and greater than 100 µM at E. coli PBP1b.

On to `O=C(O)c1c(F)ccc2c1OB(O)[C@@H](NC(=O)C(NC(=O)N1CCN(CCF)C(=O)C1=O)c1ccc(O)c(O)c1Cl)C2` (stereo partly shown) [Example 131], for which the EC50 was greater than 500 µM on E. coli PBP2 (setting [2]) and 10 to 100 µM on E. coli PBP1b.
